Laboratory results taken from patent publication US12084444B2, “Spiro-lactam NMDA modulators and methods of using same” (Tenacia Biotechnology (Hong Kong) Co., Limited, priority 2016, dated 2024).

Legend:
[1] = biological target: T1, NMDAR2B expressing HEK cell membranes (Homo sapiens, UniProt Q05586+Q13224); assay: NMDAR agonist assay, [3H]MK-801 binding, NMDAR2B; assay type: biochemical; set-up: key to NMDAR2B B: log EC50: 0=−; ≥1×10^−9 M (e.g., −8)=+; <1×10^−9 M (e.g., −10)=++; conditions: 50 μM glutamate; for EC50: read-out: NMDAR2B B: log EC50 (converted); for Emax: 0.25 h, read-out: NMDAR2B A: % maximal [3H]MK-801 binding relative to 1 mM glycine
T1 construct: expressed in transfected cells; host or cells: HEK cells (membrane extract)
Method: (§1) Assays were conducted as described by Moskal et al., “GLYX-13: a monoclonal antibody-derived peptide that acts as an N-methyl-D-aspartate receptor modulator,” Neuropharmacology, 49, 1077-87, 2005. These studies were designed to determine if the test compounds act to facilitate NMDAR activation in NMDAR2A, NMDAR2B, NMDAR2C or NMDAR2D expressing HEK cell membranes as measured by increases in [^3H]MK-801 binding.
(§2) In the assay, 300 μg of NMDAR expressing HEK cell membrane extract protein was preincubated for 15 minutes at 25° C. in the presence of saturating concentrations of glutamate (50 μM) and varying concentrations of test compound (1×10^−15 M-1×10^−7 M), or 1 mM glycine. Following the addition of 0.3 μCi of [^3H]MK-801 (22.5 Ci/mmol), reactions were again incubated for 15 minutes at 25° C. (nonequilibrium conditions). Bound and free [^3H]MK-801 were separated via rapid filtration using a Brandel apparatus.
(§3) In analyzing the data, the DPM (disintegrations per minute) of [^3H]MK-801 remaining on the filter were measured for each concentration of test compound or for 1 mM glycine. The DPM values for each concentration of a ligand (N=2) were averaged. The baseline value was determined from the best fit curve of the DPM values modeled using the GraphPad program and the log(agonist) vs. response(three parameters) algorithm was then subtracted from all points in the dataset. The % maximal [^3H]MK-801 binding was then calculated relative to that of 1 mM glycine: all baseline subtracted DPM values were divided by the average value for 1 mM glycine. The EC50 and % maximal activity were then obtained from the best fit curve of the % maximal [^3H]MK-801 binding data modelled using the GraphPad program and the log(agonist) vs. response(three parameters) algorithm.
(§4) The tables below summarize the results for the wild type NMDAR agonists NMDAR2A, NMDAR2B, NMDAR2C, and NMDAR2D, and whether the compound is not an agonist (−), is an agonist (+), or is a strong agonist (++), where column A is based on the % maximal [^3H]MK-801 binding relative to 1 mM glycine (−=0; <100%=+; and >100%=++); and column B is based on log EC50 values (0=−; ≥1×10^−9 M (e.g., −8)=+; and <1×10^−9 M (e.g., −10)=++).

IV pharmacokinetics = assay: IV pharmacokinetics; set-up: species or system Sprague Dawley rats; conditions: Sprague Dawley, in vivo, rat, 2 mg/kg, normal saline; for Vd: read-out: Vss
Method: Sprague Dawley rats were dosed intravenously using a normal saline formulation containing 2 mg/kg of the compounds identified in the below table. The table below summarizes the results of the IV pharmacokinetics.

[2] = biological target: T2, NMDAR2A expressing HEK cell membranes (Homo sapiens, UniProt Q05586+Q12879); assay: NMDAR agonist assay, [3H]MK-801 binding, NMDAR2A; assay type: biochemical; set-up: key to NMDAR2A B: log EC50: 0=−; ≥1×10^−9 M (e.g., −8)=+; <1×10^−9 M (e.g., −10)=++; conditions: 50 μM glutamate; for Emax: 0.25 h, read-out: NMDAR2A A: % maximal [3H]MK-801 binding relative to 1 mM glycine; for EC50: read-out: NMDAR2A B: log EC50 (converted)
T2 construct: expressed in transfected cells; host or cells: HEK cells (membrane extract)
T2 sequence (Q12879 23-1464, other chains not shown): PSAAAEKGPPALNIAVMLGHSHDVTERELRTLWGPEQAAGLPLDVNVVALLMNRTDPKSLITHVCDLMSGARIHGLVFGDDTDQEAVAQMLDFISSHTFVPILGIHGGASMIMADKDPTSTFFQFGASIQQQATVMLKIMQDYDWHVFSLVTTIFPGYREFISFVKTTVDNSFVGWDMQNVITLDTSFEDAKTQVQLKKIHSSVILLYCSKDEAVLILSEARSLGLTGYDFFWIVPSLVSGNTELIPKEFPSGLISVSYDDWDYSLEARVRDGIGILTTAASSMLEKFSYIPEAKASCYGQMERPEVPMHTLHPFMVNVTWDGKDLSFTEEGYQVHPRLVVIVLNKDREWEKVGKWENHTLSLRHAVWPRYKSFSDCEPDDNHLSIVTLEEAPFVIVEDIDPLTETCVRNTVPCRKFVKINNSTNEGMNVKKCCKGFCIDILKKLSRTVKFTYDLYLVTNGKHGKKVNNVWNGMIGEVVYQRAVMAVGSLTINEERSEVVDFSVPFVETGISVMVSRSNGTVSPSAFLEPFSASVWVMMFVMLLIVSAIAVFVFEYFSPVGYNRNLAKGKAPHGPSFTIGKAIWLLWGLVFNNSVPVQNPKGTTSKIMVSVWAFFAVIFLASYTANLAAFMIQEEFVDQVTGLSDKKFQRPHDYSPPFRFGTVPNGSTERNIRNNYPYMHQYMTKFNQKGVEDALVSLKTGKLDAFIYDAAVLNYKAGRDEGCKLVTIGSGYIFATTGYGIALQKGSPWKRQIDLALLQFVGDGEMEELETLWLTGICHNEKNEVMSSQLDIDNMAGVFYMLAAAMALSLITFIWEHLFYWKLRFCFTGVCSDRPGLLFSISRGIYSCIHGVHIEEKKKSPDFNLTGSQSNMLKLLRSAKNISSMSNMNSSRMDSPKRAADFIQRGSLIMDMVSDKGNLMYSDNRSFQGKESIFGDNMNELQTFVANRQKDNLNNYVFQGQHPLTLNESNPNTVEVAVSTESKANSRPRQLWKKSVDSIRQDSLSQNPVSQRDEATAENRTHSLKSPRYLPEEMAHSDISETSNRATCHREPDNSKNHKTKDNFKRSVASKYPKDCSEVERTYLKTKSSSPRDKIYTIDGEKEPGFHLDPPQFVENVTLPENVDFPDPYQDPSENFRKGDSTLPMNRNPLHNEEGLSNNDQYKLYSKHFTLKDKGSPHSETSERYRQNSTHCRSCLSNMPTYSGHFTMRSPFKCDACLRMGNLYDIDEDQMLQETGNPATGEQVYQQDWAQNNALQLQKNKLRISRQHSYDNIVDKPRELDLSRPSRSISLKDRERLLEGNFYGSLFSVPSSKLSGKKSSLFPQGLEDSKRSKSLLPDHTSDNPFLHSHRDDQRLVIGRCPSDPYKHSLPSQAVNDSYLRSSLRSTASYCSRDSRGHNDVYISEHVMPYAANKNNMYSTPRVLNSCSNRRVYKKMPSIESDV
Method: as §1, §2, §3, §4

[3] = biological target: T3, NMDAR2A expressing HEK cell membranes (Homo sapiens, UniProt Q12879); assay: NMDAR agonist assay, [3H]MK-801 binding, NMDAR2A; assay type: biochemical; set-up: key to NMDAR2A B: log EC50: 0=−; ≥1×10^−9 M (e.g., −8)=+; <1×10^−9 M (e.g., −10)=++; conditions: 50 μM glutamate; for EC50: read-out: NMDAR2A B: log EC50 (converted)
T3 construct: expressed in transfected cells; host or cells: HEK cells (membrane extract)
T3 sequence (Q12879 23-1464, other chains not shown): as above
Method: as §1, §2, §3, §4

[4] = Oral pharmacokinetics (plasma, brain, CSF); assay type: in vivo, Sprague Dawley rats; conditions: rat, per os, 10 mg/kg; for AUC(0-t) / bioavailability / Tmax / Cmax: Sprague Dawley, plasma, po; for Tmax: normal saline
Method: In another experiment, Sprague Dawley rats were dosed per os using a normal saline formulation containing 10 mg/kg of the compounds identified in the table below. Plasma, brain, and CSF samples were analyzed at various time points over a 24 hour period. The table below summarizes the results of the oral pharmacokinetics.

[5] = biological target: T4, NMDAR2B expressing HEK cell membranes (Homo sapiens, UniProt Q13224); assay: NMDAR agonist assay, [3H]MK-801 binding, NMDAR2B; assay type: biochemical; set-up: key to NMDAR2B B: log EC50: 0=−; ≥1×10^−9 M (e.g., −8)=+; <1×10^−9 M (e.g., −10)=++; conditions: 50 μM glutamate; for EC50: read-out: NMDAR2B B: log EC50 (converted)
T4 construct: expressed in transfected cells; host or cells: HEK cells (membrane extract)
T4 sequence (Q13224 27-1484, other chains not shown): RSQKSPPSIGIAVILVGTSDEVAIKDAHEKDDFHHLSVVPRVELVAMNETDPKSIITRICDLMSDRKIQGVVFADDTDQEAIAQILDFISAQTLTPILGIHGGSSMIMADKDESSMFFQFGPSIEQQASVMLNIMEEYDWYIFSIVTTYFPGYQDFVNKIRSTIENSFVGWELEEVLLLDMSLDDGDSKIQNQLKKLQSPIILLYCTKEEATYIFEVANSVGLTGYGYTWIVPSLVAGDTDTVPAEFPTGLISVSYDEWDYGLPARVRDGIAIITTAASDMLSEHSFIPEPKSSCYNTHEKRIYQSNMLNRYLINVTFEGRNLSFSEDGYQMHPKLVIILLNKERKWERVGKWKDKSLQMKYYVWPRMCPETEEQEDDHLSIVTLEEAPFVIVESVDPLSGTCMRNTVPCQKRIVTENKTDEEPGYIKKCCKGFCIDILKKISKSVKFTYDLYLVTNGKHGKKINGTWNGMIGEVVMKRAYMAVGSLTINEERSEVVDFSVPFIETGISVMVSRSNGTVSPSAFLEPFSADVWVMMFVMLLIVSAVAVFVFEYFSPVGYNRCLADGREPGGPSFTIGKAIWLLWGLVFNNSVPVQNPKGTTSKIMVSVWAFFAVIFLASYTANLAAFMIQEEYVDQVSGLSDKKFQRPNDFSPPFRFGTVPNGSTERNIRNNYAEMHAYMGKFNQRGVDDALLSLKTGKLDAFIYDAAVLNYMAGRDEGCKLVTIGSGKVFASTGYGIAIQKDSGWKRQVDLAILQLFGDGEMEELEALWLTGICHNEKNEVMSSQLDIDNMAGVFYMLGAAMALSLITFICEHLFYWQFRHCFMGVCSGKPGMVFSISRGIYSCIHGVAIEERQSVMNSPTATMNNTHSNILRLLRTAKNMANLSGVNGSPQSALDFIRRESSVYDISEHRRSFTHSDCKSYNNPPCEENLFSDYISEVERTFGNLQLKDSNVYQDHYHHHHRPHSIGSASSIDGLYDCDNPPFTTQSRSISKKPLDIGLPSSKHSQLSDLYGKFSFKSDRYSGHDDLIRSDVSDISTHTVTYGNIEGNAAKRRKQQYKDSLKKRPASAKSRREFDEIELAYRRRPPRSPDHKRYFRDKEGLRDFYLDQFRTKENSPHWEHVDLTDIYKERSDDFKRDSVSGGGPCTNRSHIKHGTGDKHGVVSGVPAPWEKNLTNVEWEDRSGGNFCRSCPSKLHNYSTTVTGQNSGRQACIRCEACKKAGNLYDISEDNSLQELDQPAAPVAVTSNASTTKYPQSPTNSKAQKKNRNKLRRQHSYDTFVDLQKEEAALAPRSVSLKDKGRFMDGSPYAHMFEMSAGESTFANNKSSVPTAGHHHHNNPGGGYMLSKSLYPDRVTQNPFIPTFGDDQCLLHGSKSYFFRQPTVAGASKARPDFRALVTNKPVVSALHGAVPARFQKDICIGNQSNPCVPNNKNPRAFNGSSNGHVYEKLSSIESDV
Method: as §1, §2, §3, §4

| SMILES | EC50 [1] | Emax [1] | Emax [2] | NMDAR2A B: log EC50 [3] | NMDAR2A A: % maximal [3H]MK-801 binding relative to 1 mM glycine [3] | NMDAR2B A: % maximal [3H]MK-801 binding relative to 1 mM glycine [5] | EC50 [2] | NMDAR2B B: log EC50 [5] | further results |
| --- | --- | --- | --- | --- | --- | --- | --- | --- | --- |
| C[C@@H](O)[C@@H](C(=O)NCc1ccccc1)N1CC2(CCNC(=O)C2)C1=O (single isomer, unassigned) [CB] | < 1 nM | < 100% | 0% | − |  |  |  |  | AUC(0-t) (IV pharmacokinetics): 1320 ng·h/mL; C0 (IV pharmacokinetics): 4320 ng/mL; clearance (IV pharmacokinetics): 25.3 mL/min/kg; half-life (IV pharmacokinetics): 106 min; Vd (IV pharmacokinetics): 1.2 L/kg; AUC(0-t) [4]: 297 ng·h/mL; bioavailability [4]: 5%; Tmax [4]: 30 min; Cmax [4]: 143 ng/mL; CSF Cmax [4]: 31.02 ng/mL; Brain Cmax [4]: 7.38 ng/mL |
| C[C@@H](O)[C@@H](C(=O)N(C)C)N1CC2(CCNC(=O)C2)C1=O (single isomer, unassigned) [CC] | < 1 nM | < 100% |  | − | − (−=0) |  |  |  | AUC(0-t) (IV pharmacokinetics): 2130 ng·h/mL; C0 (IV pharmacokinetics): 7930 ng/mL; clearance (IV pharmacokinetics): 15.7 mL/min/kg; half-life (IV pharmacokinetics): 127 min; Vd (IV pharmacokinetics): 0.5 L/kg; AUC(0-t) [4]: 701 ng·h/mL; bioavailability [4]: 7%; Tmax [4]: 25.2 min; Cmax [4]: 191 ng/mL; CSF Cmax [4]: 0 ng/mL; Brain Cmax [4]: 0 ng/mL |
| C[C@@H](O)[C@@H](C(=O)N(C)C)N1CC2(CCNC(=O)C2)C1=O (single isomer, unassigned) [CD] |  |  |  |  | + (<100%=+) | + (<100%=+) | < 1 nM |  | EC50 [5]: < 1 nM |
| COc1ccc(CN2CC3(CCN(C)C(=O)C3)C2=O)cc1 (single isomer, unassigned) [CI, 2-(4-methoxybenzyl)-7-methyl-2,7-diazaspiro[3.5]nonane-1,6-dione] | < 1 nM | < 100% | < 100% |  |  |  | < 1 nM |  | AUC(0-t) (IV pharmacokinetics): 1040 ng·h/mL; C0 (IV pharmacokinetics): 2120 ng/mL; clearance (IV pharmacokinetics): 32 mL/min/kg; half-life (IV pharmacokinetics): 25.2 min; Vd (IV pharmacokinetics): 0.91 L/kg; AUC(0-t) [4]: 5060 ng·h/mL; bioavailability [4]: 97%; Tmax [4]: 15 min; Cmax [4]: 5050 ng/mL; CSF Cmax [4]: 1113.94 ng/mL; Brain Cmax [4]: 996.66 ng/mL |
| CCN1CCC2(CC1=O)CN(Cc1ccc(OC)cc1)C2=O (single isomer, unassigned) [CL, 7-ethyl-2-(4-methoxybenzyl)-2,7-diazaspiro[3.5]nonane-1,6-dione] | < 1 nM | < 100% | < 100% |  |  |  | < 1 nM |  | AUC(0-t) (IV pharmacokinetics): 772 ng·h/mL; C0 (IV pharmacokinetics): 2690 ng/mL; clearance (IV pharmacokinetics): 41.7 mL/min/kg; half-life (IV pharmacokinetics): 12.6 min; Vd (IV pharmacokinetics): 0.7 L/kg; AUC(0-t) [4]: 1430 ng·h/mL; bioavailability [4]: 37%; Tmax [4]: 15 min; Cmax [4]: 1800 ng/mL; CSF Cmax [4]: 866.42 ng/mL; Brain Cmax [4]: 707.6 ng/mL |
| COc1ccc(CN2CC3(CCNC(=S)C3)C2=O)cc1 (single isomer, unassigned) [CM, 2-(4-methoxybenzyl)-6-thioxo-2,7-diazaspiro[3.5]nonan-1-one] |  | 0% | 0% | − |  |  |  | − |  |
| COc1ccc(CN2CC3(CCNC(=S)C3)C2=S)cc1 (single isomer, unassigned) [CP, 2-(4-methoxybenzyl)-2,7-diazaspiro[3.5]nonane-1,6-dithione] | < 1 nM |  |  |  | + (<100%=+) | + (<100%=+) |  |  | EC50 [3]: < 1 nM |
| O=C1CC2(CCN1)CN(Cc1ccccc1)C2=O (single isomer, unassigned) [CV, 2-benzyl-2,7-diazaspiro[3.5]nonane-1,6-dione] |  |  |  |  | + (<100%=+) | + (<100%=+) | < 1 nM |  | EC50 [5]: < 1 nM |
| CN1CC2(CCNC(=O)C2)C1=O (single isomer, unassigned) [DH, 2-methyl-2,7-diazaspiro[3.5]nonane-1,6-dione] | < 1 nM |  |  |  | + (<100%=+) | ++ (>100%=++) |  |  | EC50 [3]: < 1 nM |
| CC1CC(=O)N(c2ccc(F)cc2)C12CN([C@H](C(N)=O)[C@@H](C)O)C2=O (single isomer, unassigned) [DL] |  |  |  |  | + (<100%=+) | − (−=0) | < 1 nM | − |  |
| CC1CC(=O)N(c2ccc(F)cc2)C12CN(Cc1ccccc1)C2=O (stereo not drawn) [BY, 2-benzyl-5-(4-fluorophenyl)-8-methyl-2,5-diazaspiro[3.4]octane-1,6-dione] |  | 0% | 0% | − |  |  |  | − |  |
| C[C@@H](O)[C@@H](C(=O)NCc1ccccc1)N1CC2(CCNC(=O)C2)C1=O (stereo partly drawn) [CA, (2S,3R)—N-benzyl-2-(1,6-dioxo-2,7-diazaspiro[3.5]nonan-2-yl)-3-hydroxybutanamide] |  | 0% | 0% | − |  |  |  | − |  |
| CC1CC(=O)N(c2ccc(F)cc2)C12CN(CC(N)=O)C2=O (stereo not drawn) [CE, 2-(5-(4-fluorophenyl)-8-methyl-1,6-dioxo-2,5-diazaspiro[3.4]octan-2-yl)acetamide] |  | 0% | 0% | − |  |  |  | − |  |
| CC1C(N)C(=O)N(C)C12CN(Cc1ccccc1)C2=O (stereo not drawn) [CH, 7-amino-2-benzyl-5,8-dimethyl-2,5-diazaspiro[3.4]octane-1,6-dione] |  | 0% | 0% | − |  |  |  | − |  |
| CCN1CCC2(CC1=O)CN(Cc1ccc(OC)cc1)C2=O (stereo not drawn) [CK, 7-ethyl-2-(4-methoxybenzyl)-2,7-diazaspiro[3.5]nonane-1,6-dione] |  | 0% | 0% | − |  |  |  | − |  |
| CNC(=O)[C@H]([C@@H](C)O)N1CC2(CCNC(=O)C2)C1=O (stereo partly drawn) [DA, (2S,3R)-2-(1,6-dioxo-2,7-diazaspiro[3.5]nonan-2-yl)-3-hydroxy-N-methylbutanamide] |  | 0% | 0% | − |  |  |  | − |  |
